Measurements from US8697643B2, “Method for controllably releasing a drug conjugate within subcutaneous tissue in response to the local concentration of an indicator” (priority 2005, dated 2014).

Legend:
[1] = tested on: fasted normal rats (Male Sprague-Dawley); assay: blood glucose depression and serum insulin profiles after subcutaneous injection; assay type: in vivo, rat
Experimental: Subcutaneous injections of insulin-polymer conjugates or insulin controls are administered at a dose between 1 and 10 equivalent U insulin/kg body weight behind the neck of fasted normal […] rats (Male Sprague-Dawley, 200-250 g, n=2-4). Blood samples are collected via tail vein bleeding at −15 and 0 minutes, and at 15, 30, 45, 60, 90, 120, 180, 240, 300 and 360 minutes after injection. Blood glucose values are measured using commercially available test strips (Precision Xtra, Abbott Laboratories, Abbott Park, Ill.). The remaining blood is centrifuged to obtain serum and stored in a freezer until measured for serum insulin levels. Serum insulin is measured using an ELISA kit (ALPCO Diagnostics, Windham, N.H.). Pharmacodynamic (PD) parameters such as time to reach minimum blood glucose concentration (Tnadir) and duration over which the blood glucose level remains below 70% of initial value (T70% BGL), are determined according to published methods for subcutaneous delivery. Pharmacokinetic (PK) parameters such as time to reach maximum serum insulin concentration (Tmax), mean insulin residence time (MRT), and mean insulin absorption time (MAT), are determined according to published methods for subcutaneous delivery using commercially available ELISA assays (ALPCO Diagnostics, Windham, N.H.). The blood glucose depression curve and corresponding serum insulin profile for each formulation may then be compared to those obtained for an insulin control to determine any differences in the timing and extent of the insulin action.
The in vivo digestion behavior of the insulin-glycogen conjugate was assessed via subcutaneous injection (alone without a glucose-binding molecule such as Con A) into normal male SD rats.
Subcutaneous injections of insulin-dextran were administered using 0.25 ml of a sterilized 1×PBS solution (0.88 equivalent mg insulin/[…]) behind the neck of two fasted normal rat groups (Male Sprague-Dawley, 200-250 g, n=4). Measurements of glucose and insulin values from tail vein blood samples were performed at −15 and 0 minutes, and at 15, 30, 45, 60, 90, 120, 180, 240, 300 and 360 minutes after injection.

non-diabetic felines = assay: euglycemic clamp protocol in non-diabetic felines; assay type: in vivo, feline; conditions: 0.5 U/kg conjugate (FIG. 6)
[2] = tested on: normal and STZ-diabetic rats; assay: disappearance of fluorescently labeled gel components from the injection site; assay type: in vivo, rat; conditions: gel injected under the skin
From the text: The inventive gel of Example 21, has viscosity characteristics that allow easy loading and injection through a standard 27½G insulin syringe obviating the need for invasive surgery. […] This is necessary to avoid unwanted material accumulation after repeated daily dosing. To illustrate this point, gels were synthesized from (i) fluorescently-labeled insulin-glycogen conjugate (FITC-conjugate)/unlabeled Con A and (ii) unlabeled insulin-glycogen conjugate/fluorescently-labeled Con A (FITC-Con A) in the presence of India ink (SpeedBall® Superblack) and injected under the skin of both normal and STZ-diabetic rats on Days 2, 1, and 0 in order to simultaneously observe the injection site post-mortem and monitor the rate of disappearance of each of the components by fluorescence imaging.
Taken together, not only is the insulin-glycogen conjugate removed completely from the injection site, its rate of disappearance is dependent on the glycemic state of the animal (i.e. hyperglycemia leads to more rapid elimination of material from the site).

human salivary amylase = target: T1, human salivary amylase (Homo sapiens, UniProt P0DUB6); assay: in vitro amylase digestion assay of insulin-glycogen (SDS-PAGE); assay type: in vitro ADME; conditions: SDS-PAGE after incubation with amylase
T1 construct: from tissue; host or cells: human saliva (whole, diluted in 1x PBS)
T1 sequence (P0DUB6 16-511): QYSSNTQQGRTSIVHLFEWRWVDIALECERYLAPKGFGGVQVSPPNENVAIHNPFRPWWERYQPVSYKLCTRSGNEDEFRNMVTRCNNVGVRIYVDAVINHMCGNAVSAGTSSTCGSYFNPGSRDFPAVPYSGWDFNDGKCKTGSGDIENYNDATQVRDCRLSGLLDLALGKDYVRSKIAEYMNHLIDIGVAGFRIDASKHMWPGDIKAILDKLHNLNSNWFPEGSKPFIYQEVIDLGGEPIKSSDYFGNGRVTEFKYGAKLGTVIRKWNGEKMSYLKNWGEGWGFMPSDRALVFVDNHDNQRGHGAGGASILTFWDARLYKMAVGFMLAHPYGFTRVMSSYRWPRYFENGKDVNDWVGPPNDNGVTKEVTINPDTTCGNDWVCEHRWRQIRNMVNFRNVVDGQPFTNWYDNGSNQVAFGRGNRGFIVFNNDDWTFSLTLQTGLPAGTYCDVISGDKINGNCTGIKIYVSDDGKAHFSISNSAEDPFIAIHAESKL
Experimental: As previously discussed, once an insulin-glycogen conjugate is released from an inventive glucose-responsive material, it is digested by amylases that breakdown the large molecular weight insulin-glycogen conjugate into low molecular weight conjugates in vivo. […] An in vitro amylase digestion assay was performed to qualify the proposed insulin-glycogen degradation mechanism. […] The saliva sample was serially diluted 1:2 in 1×PBS buffer to 1:512.90 μL aliquots of each of the 1:4, 1:16, 1:64, 1:128, 1:256, and 1:512 dilutions were added to pre-prepared microcentrifuge tubes containing 90 μL of undiluted insulin-glycogen. […] The gels were run in SDS running buffer for 45 minutes to an hour at a constant voltage of 150 V. Under these conditions, the amylase completely digested the insulin-glycogen conjugate into native MW insulin at the 1:16 dilution level as quantified by the relative band density of high MW conjugate to that of native MW insulin.
SDS-PAGE has confirmed that the insulin-glycogen conjugate is essentially free from unconjugated insulin (FIG. 5a). […] Serum was collected from the other catheter as a function of time and analyzed for fluorescence (fmax, Molecular Devices, Sunnyvale, Calif.) to determine glycogen absorption rate and insulin levels (RIA, Joslin Diabetes Center).

[3] = FIG. 4b, s.c. 2.5 U of conjugated insulin/kg, male SD rats
[4] = s.c. injection alone, normal male SD rats
[5] = s.c. 0.25 ml, fasted normal male SD rats

Substance | T70% BGL [1, 3] | Tnadir (blood glucose) [1, 3] | time to reach glucose nadir (Tnadir) [1, 4] | time to return to within 70% of fasting glucose levels (T70% BGL) [1, 4] | speed of insulin action compared with unconjugated insulin ([1]; s.c., normal male SD rats) | conjugate bioactivity in euglycemic clamp (non-diabetic felines) | elimination from the injection site (fluorescence imaging) ([2]; STZ-diabetic rats) | elimination from the injection site (fluorescence imaging) ([2]; normal rats) | degradation by amylases (human salivary amylase) | time serum glucose levels remain depressed post injection [1, 5] | time to reach the glucose nadir (Tnadir) [1, 5] | time to return to within 70% of fasting glucose levels (T70% BGL) [1, 5]
insulin-glycogen conjugate: human recombinant insulin covalently linked to glycogen by CNBr or CDAP coupling; glycogen source differs between examples | ~150 min | 30 to 45 min | 30 to 45 min | less than 180 minutes | acts just as rapidly as unconjugated insulin in vivo | confirmed the conjugate bioactivity | completely eliminated from the injection site in STZ-diabetic rats both one and two days after injection | still remained at the injection site after one day | rapidly degraded by amylases in vitro and in vivo |  |  | 
insulin-dextran: human recombinant insulin coupled to dextran (MW=70K) by CNBr; comparative conjugate [reference compound] |  |  |  |  |  |  |  |  |  | at least five | about 3 h | greater than 2.5 hours
